Assay results published in patent US20220031607A1, “INJECTION COMPOSITION CONTAINING FAB I INHIBITOR, AND PREPARATION METHOD THEREFOR” (CRYSTALGENOMICS, INC., priority 2019, published 2022).
Converted amounts (≈) assume the structure as drawn. Like-named read-outs stand apart in the source and are kept apart here.

Assays:
Format in all cases: cell-based
[1] = system: Methicillin-susceptible Staphylococcus aureus strains; test: Drug susceptibility (MIC) of methicillin-susceptible clinical isolates
Procedure: (§1) In order to verify the inhibitory effect of the compound of formula 1 on antibiotic-resistant strains, drug susceptibility was evaluated by treating the compound of formula 1 with Staphylococcus aureus phenotype isolated from each patient. In an in vitro test for antibiotic development, the most important result can be MIC90 (minimum inhibitory concentration required to inhibit the growth of 90% of the total bacterial population). […] Appelbaum at Hershey Hospital who is recognized for its authority in the field of anti-infection worldwide.

[2] = system: Methicillin-resistant Staphylococcus aureus (MRSA) strains; test: Drug susceptibility (MIC) of MRSA clinical isolates
Procedure: as §1

[3] = system: Staphylococcus aureus ATCC 29213 (MSSA, standard strain); test: Susceptibility test (MIC), standard strain
Procedure: (§2) For the compound of formula 1, pharmacokinetic/pharmacodynamic experiments were conducted using a mouse infection model. To this end, experiments were conducted with Staphylococcus aureus ATCC 29213 (MSSA, standard strain) and 13B-382 (MRSA, clinical strain). As a medium, Mueller-Hinton broth or Cation-adjusted Mueller-Hinton broth was used. For the susceptibility test (minimum inhibitory concentration (MIC)), the compound of formula 1 was used.

[4] = system: Staphylococcus aureus 13B-382 (MRSA, clinical strain); test: Susceptibility test (MIC), clinical strain
Procedure: as §2

[5] = Staphylococcus aureus, Methicillin-susceptible, n = 103, read-out: MIC50
[6] = Staphylococcus aureus, Methicillin-susceptible, n = 103, read-out: MIC90
[7] = Staphylococcus aureus, MRSA, Methicillin-resistant, n = 100, read-out: MIC50
[8] = Staphylococcus aureus, MRSA, Methicillin-resistant, n = 100, read-out: MIC90
[9] = Methicillin-susceptible, n = 103

## CC[C@H]1OC(=O)[C@H](C)[C@@H](O[C@H]2C[C@@](C)(OC)[C@@H](O)[C@H](C)O2)[C@H](C)[C@@H](O[C@@H]2O[C@H](C)C[C@H](N(C)C)[C@H]2O)[C@](C)(O)C[C@@H](C)CN(C)[C@H](C)[C@@H](O)[C@]1(C)O [Azithromycin]
[1]; [5]
  MIC50: 1 µg/mL (≈ 1.34 µM)
[1]; [6]
  MIC90: > 64 µg/mL
[2]; [7]
  MIC50: > 64 µg/mL
[2]; [8]
  MIC90: > 64 µg/mL

## Teicoplanin
[1]; [9]
  MIC50: 1 µg/mL
  MIC90: 2 µg/mL
  MIC Range: 0.125 to 8.0 µg/mL
[2]; Methicillin-resistant, n = 100
  MIC50: 1 µg/mL
  MIC90: 2 µg/mL

## CN[C@H](CC(C)C)C(=O)N[C@H]1C(=O)N[C@@H](CC(N)=O)C(=O)N[C@H]2C(=O)N[C@H]3C(=O)N[C@H](C(=O)N[C@H](C(=O)O)c4cc(O)cc(O)c4-c4cc3ccc4O)[C@H](O)c3ccc(c(Cl)c3)Oc3cc2cc(c3O[C@@H]2O[C@H](CO)[C@@H](O)[C@H](O)[C@H]2O[C@H]2C[C@](C)(N)[C@H](O)[C@H](C)O2)Oc2ccc(cc2Cl)[C@H]1O [Vancomycin]
[1]; [9]
  MIC Range: 1.0 to 2.0 µg/mL
[1]; Staphylococcus aureus
  MIC50: 1 µg/mL (≈ 0.69 µM)
  MIC90: 2 µg/mL (≈ 1.38 µM)
[2]; Staphylococcus aureus, MRSA
  MIC50: 1 µg/mL (≈ 0.69 µM)
  MIC90: 2 µg/mL (≈ 1.38 µM)
[2]; Staphylococcus aureus, MRSA / VRSA
  MIC: > 64 µg/mL
[3]; Staphylococcus aureus
  MIC: 0.5 µg/mL (≈ 0.345 µM)
[4]; Staphylococcus aureus
  MIC: 1 µg/mL (≈ 0.69 µM)

## CCCCCCCCCC(=O)N[C@@H](Cc1c[nH]c2ccccc12)C(=O)N[C@H](CC(N)=O)C(=O)N[C@@H](CC(=O)O)C(=O)N[C@@H]1C(=O)NCC(=O)N[C@@H](CCCN)C(=O)N[C@@H](CC(=O)O)C(=O)N[C@H](C)C(=O)N[C@@H](CC(=O)O)C(=O)NCC(=O)N[C@H](CO)C(=O)N[C@@H]([C@H](C)CC(=O)O)C(=O)N[C@@H](CC(=O)c2ccccc2N)C(=O)O[C@@H]1C [Daptomycin]
[1]; [9]
  MIC Range: 0.25 to 2.0 µg/mL
[1]; [5]
  MIC50: 1 µg/mL (≈ 0.617 µM)
[1]; [6]
  MIC90: 1 µg/mL (≈ 0.617 µM)
[2]; Methicillin-resistant, n = 100
  MIC Range: 0.25 to 4.0 µg/mL
[2]; [7]
  MIC50: 0.5 µg/mL (≈ 0.309 µM)
[2]; [8]
  MIC90: 0.5 µg/mL (≈ 0.309 µM)

## CC(=O)NC[C@H]1CN(c2ccc(N3CCOCC3)c(F)c2)C(=O)O1 [Linezolid]
[1]; [9]
  MIC Range: 0.25 to 2.0 µg/mL
[1]; [5]
  MIC50: 1 µg/mL (≈ 2.96 µM)
[1]; [6]
  MIC90: 2 µg/mL (≈ 5.93 µM)
[2]; Methicillin-resistant, n = 100
  MIC Range: 0.25 to 2.0 µg/mL
[2]; [7]
  MIC50: 1 µg/mL (≈ 2.96 µM)
[2]; [8]
  MIC90: 2 µg/mL (≈ 5.93 µM)

## C[C@H]1COc2c(N3CCN(C)CC3)c(F)cc3c(=O)c(C(=O)O)cn1c23 [Levofloxacin]
[1]; [9]
  MIC Range: ≤0.06 to 32.0 µg/mL
[1]; [5]
  MIC50: 0.25 µg/mL (≈ 0.692 µM)
[1]; [6]
  MIC90: 4 µg/mL (≈ 11.1 µM)
[2]; [7]
  MIC50: 1 µg/mL (≈ 2.77 µM)
[2]; [8]
  MIC90: > 32 µg/mL

## Cc1onc(-c2ccccc2)c1C(=O)N[C@@H]1C(=O)N2[C@@H]1SC(C)(C)[C@@H]2C(=O)O [Oxacillin]
[3]; Staphylococcus aureus ATCC 29213, read-out: MIC
  MIC: 0.25 µg/mL (≈ 0.623 µM)
[4]; Staphylococcus aureus 13B-382, read-out: MIC
  MIC: 16 µg/mL (≈ 39.9 µM)
